Reference: patent US10266544B2, “Aryl substituted aminomethyl spectinomycin analogs as antibacterial agents” (ST. JUDE CHILDREN'S RESEARCH HOSPITAL, INC., priority 2013, dated 2019)
Counter-ions that a name gives are not always drawn. Like-named read-outs stand apart in the source and are kept apart here.

Tests used:
Type in all cases: cell-based
[1] = tested on: Neisseria meningitides (ATCC 13077); test: Disc diffusion assay; conditions: ATCC13077, 4 μg per disc, read-out: Zone of inhibition N.m.
[2] = tested on: Streptococcus pyogenes (ATCC 700294); test: MIC determination, microbroth dilution; conditions: ATCC700294; Streptococcus pyogenes (ATCC 700294); read-out: MIC S. py.
[3] = tested on: Stenotrophomonas maltophilia (ATCC 13637); test: MIC determination, microbroth dilution; conditions: ATCC13637; Stenotrophomonas maltophilia (ATCC 13637); read-out: MIC S.m.
[4] = tested on: Burkholderia cepacia (ATCC 25416); test: MIC determination, microbroth dilution; conditions: Burkholderia cepacia
Bacillus anthracis = test: microbe, parasite or virus in culture; conditions: read-out: MIC B.a.
[5] = tested on: acinetobacter baumannii (ATCC 19606); test: MIC determination, microbroth dilution; conditions: ATCC19606
[6] = tested on: Escherichia coli (ATCC 700926); test: MIC determination, microbroth dilution; conditions: ATCC700926; Escherichia coli (ATCC 700926); read-out: MIC E.c.
[7] = tested on: Pseudomonas aeruginosa (PA01); test: MIC determination, microbroth dilution
[8] = tested on: Proteus vulgaris (ATCC 33420); test: MIC determination, microbroth dilution; conditions: ATCC33420
[9] = tested on: Streptococcus pneumoniae clinical isolates representing several serotypes; test: MIC determination, Streptococcus pneumoniae panel of clinical isolates (Table 7); conditions: for MIC: Streptococcus pneumoniae
[10] = tested on: Neisseria gonorrhoeae (ATCC 49226); test: Disc diffusion assay; conditions: ATCC49226, 4 μg per disc, read-out: Zone of inhibition N.g.
[11] = tested on: Legionella pneumophila (ATCC 33153); test: microbe, parasite or virus in culture; conditions: ATCC33153, 72 h, read-out: Zone of inhibition L.p.
[12] = tested on: Neisseria gonorrhoeae (ATCC 49226); test: Agar MIC determination (Alamar Blue); conditions: ATCC49226, agar MIC, read-out: MIC N.g.
[13] = tested on: Haemophilus influenza (ATCC 49247); test: microbe, parasite or virus in culture; conditions: ATCC49247; Haemophilus influenza; 4 μg per disc; range of at least two experiments; read-out: Zone of inhibition H.i.
Yersinia pestis = test: microbe, parasite or virus in culture; conditions: read-out: MIC Y.p.
[14] = tested on: live vaccine strain (LVS) of Francisella tularensis; test: microbe, parasite or virus in culture; conditions: Francisella tularensis, read-out: MIC F.t.
[15] = tested on: Bacillus anthracis, Sterne 34F2; test: microbe, parasite or virus in culture; conditions: STERNE34F2, read-out: MIC B.a.
[16] = tested on: Proteus mirabilis (ATCC 25933); test: MIC determination, microbroth dilution; conditions: ATCC25933
[17] = tested on: Staphylococcus aureus (ATCC 29213); test: MIC determination, microbroth dilution; conditions: ATCC29213; Staphylococcus aureus (ATCC 29213); read-out: MIC S.a.
[18] = tested on: M. tuberculosis clinical isolates; test: microbe, parasite or virus in culture; conditions: Mycobacterium tuberculosis, H37RV, read-out: MIC H37Rv
[19] = tested on: Bacillus subtilis (ATCC 23857); test: MIC determination, microbroth dilution; conditions: ATCC23857; Bacillus subtilis (ATCC 23857); read-out: MIC B.s.
Listeria monocytogenes = test: MIC determination (Table 6)
[20] = tested on: MRSA, Staphylococcus aureus (NRS70); test: MIC determination, microbroth dilution; conditions: Staphylococcus aureus (NRS70); read-out: MIC MRSA
[21] = tested on: Klebsiella pneumoniae (ATCC 33495); test: MIC determination, microbroth dilution; conditions: ATCC33495
[22] = tested on: Streptococcus pneumoniae (R6); test: MIC determination, microbroth dilution
Moraxella catarrhalis = test: MIC determination (Table 6)
E. coli K12 ΔtolC = test: microbe, parasite or virus in culture; conditions: Escherichia coli, read-out: MIC E.c. Δtolc

SMILES: CN[C@@H]1[C@H](O)[C@H](NC)[C@H]2O[C@]3(O)[C@H](O[C@@H]2[C@H]1O)O[C@H](C)C[C@@]3(O)CNCc1ccc(F)cc1 [compound 2, 3′-(R)-3′-[(4-fluoro)benzylaminomethyl)]dihydrospectinomycin Trihydrochloride]
- zone of inhibition at 4 µg/disc [1]: 19 to 20 mm
- MIC [2]: 1.6 to 3.1 µg/mL
- MIC [3]: 25 µg/mL
- MIC ([4]; ATCC25416, read-out: MIC B.c., Burkholderia cepacia (ATCC 25416)): > 200 µg/mL
- MIC ([4]; ATCC25416, read-out: MIC B.c., Burkholderia cepacia, Table 6): > 200 µg/mL
- MIC (Bacillus anthracis): 25 µg/mL
- MIC [5]: > 200 µg/mL
- MIC [6]: 25 µg/mL
- MIC [7]: 100 to 200 µg/mL
- MIC [8]: ≥ 200 µg/mL
- susceptibility of strains with mono-resistance to penicillin, streptomycin, and erythromycin [9]: highly susceptible
- MIC ([9]; BAA1407, S. pneumoniae BAA-1407, Macrolide Resistant, read-out: MIC BAA-1407): 6.3 µg/mL
- MIC ([9]; S. pneumoniae A66.1x, Drug Susceptible, read-out: MIC A66.1x): 1.6 µg/mL
- MIC ([9]; S. pneumoniae BHN97x, Drug Susceptible, read-out: MIC BHN97x): 1.6 µg/mL
- MIC ([9]; S. pneumoniae D39X, Drug Susceptible, read-out: MIC D39X): 1.6 µg/mL
- MIC ([9]; S. pneumoniae Daw7, PenG Resistant, read-out: MIC Daw7): 3.1 µg/mL
- MIC ([9]; S. pneumoniae Daw8, PenG Resistant, read-out: MIC Daw8): 3.1 µg/mL
- MIC ([9]; S. pneumoniae Daw9, PenG Resistant, read-out: MIC Daw9): 3.1 µg/mL
- MIC ([9]; S. pneumoniae Daw62, PenG Resistant, read-out: MIC Daw62): 3.1 µg/mL
- MIC ([9]; S. pneumoniae Daw64, PenG Resistant, read-out: MIC Daw64): 3.1 µg/mL
- MIC ([9]; S. pneumoniae OVA6, Macrolide Resistant, read-out: MIC OVA6): 3.1 µg/mL
- MIC ([9]; S. pneumoniae T4X, Drug Susceptible, read-out: MIC T4X): 3.1 µg/mL
- zone of inhibition at 4 µg/disc [10]: 16 to 19 mm
- zone of inhibition at 4 µg/disc [11]: 32 to 49 mm
- MIC [12]: 25 µg/mL
- zone of inhibition at 4 µg/disc [13]: 17 to 19 mm
- MIC (Yersinia pestis): 100 µg/mL
- MIC [14]: 1.6 to 3.1 µg/mL
- MIC [15]: 25 µg/mL
- MIC [16]: > 200 µg/mL
- MIC [17]: 25 to 50 µg/mL
- MIC [18]: 25 µg/mL
- MIC [19]: 3.1 µg/mL
- MIC (Listeria monocytogenes): 6.3 µg/mL
- MIC [20]: 50 µg/mL
- MIC [21]: 100 to 200 µg/mL
- MIC ([22]; Streptococcus pneumoniae (R6), read-out: MIC S. pn.): 1.6 to 3.1 µg/mL
- MIC ([22]; Streptococcus pneumoniae, S. pneumoniae R6, Drug Susceptible, read-out: MIC R6): 3.1 µg/mL
- MIC (Moraxella catarrhalis): 3.1 µg/mL
- MIC (E. coli K12 ΔtolC): 6.3 µg/mL
